We go through 1 molecule from patent publication US8846627B2, “Method for treatment of malaria” (The Second Military Medical University, priority 2009, dated 2014).

This test addresses T1, Falcipain-2 protease (FP-2) (Plasmodium falciparum, UniProt Q8I6U4).
T1 construct: The falcipain-2 fragment was amplified by the polymerase chain reaction (PCR); His6 (N-terminal MRGS-His6 supplied by the pQE-30 vector; own knowledge of the vector, consistent with the Ni2+-NTA purification) (N); made in house; host or cells: E. coli M15
T1 sequence (Q8I6U4 244-484): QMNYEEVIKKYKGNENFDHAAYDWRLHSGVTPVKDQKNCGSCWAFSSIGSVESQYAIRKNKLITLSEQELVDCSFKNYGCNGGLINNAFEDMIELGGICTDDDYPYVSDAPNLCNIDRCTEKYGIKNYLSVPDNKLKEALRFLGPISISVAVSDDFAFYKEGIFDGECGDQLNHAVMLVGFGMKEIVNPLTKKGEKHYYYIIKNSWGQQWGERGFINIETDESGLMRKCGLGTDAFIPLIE
Description: SPR (Biacore 3000) binding assay with immobilised FP-2 protein. As to conditions: SPR screening at 1 μM and 10 μM. The source says:
The screening and kinetics determination of the falcipain-2 protease and tiliroside binding activity are based on SPR mechanism, which employs Biacore 3000 (Biacore AB, Uppsala, Sweden).
(1) The Construction of Falcipain-2 Plasmid (pQE30-Fal2)
Primers were designed according to the falcipain-2 cDNA sequence, utilizing the following primers, forward 5′[…]3′(SEQ ID NO. 1) and reverse 5′[…]3′ (SEQ ID NO. 2), which including two restriction sites, BamH I and SaI I The falcipain-2 fragment was amplified by the polymerase chain reaction (PCR), and the PCR product was ligated into the pQE-30 expression vector and then further verified by sequencing. This construct was transformed into E. coil M15 (Qiagen).
(2) Expression and Purification of Falcipain-2 Protein
The engineering bacteria were obtained by transforming constructed plasmid pQE30-Fal2 into the E. coli M15 cells. They were culturing in LB medium (10 g/L tryptone, 5 g/L yeast extract, 10 g/L sedium chloride) containing ampicillin […] and kanamtcin […] for overnight. Then, transfer the bacteria into fresh LB medium (1 L) containing ampicillin and kanamycin (according to 1:100) at 37° C., 220 rpm. […] Bound protein was eluted with 8M urea, 20 mM Tris-Cl, 1M imidazole, pH 8.0, and the eluted protein was analyzed by SDS-PAGE. […]
(SPR reads the build-up and loss of mass on a sensor chip optically.)

As to `O=C(/C=C/c1ccc(O)cc1)OC[C@H]1O[C@@H](Oc2c(-c3ccc(O)cc3)oc3cc(O)cc(O)c3c2=O)[C@H](O)[C@@H](O)[C@@H]1O` [Tiliroside], the “binding activity with FP-2 protein” value was “obvious binding activity”.
